Measured values published in patent US12428401B2, “Salt of an aminopyridine derivative compound, a crystalline form thereof, and a process for preparing the same” (Yuhan Corporation, priority 2017, dated 2025).
Where “and” joins values, the source holds several entries; their conditions need not be identical. Equal values may be shown once. Where a name gives a salt, the structure may show the parent alone. Read-outs that look alike come from different tables or passages of the source.

Key:
[1] = Pharmacokinetic comparison test in normal rats; format: in vivo, rats (SD rats)
Text: (§1) Specifically, the maximum plasma concentration (Cmax) and the area under the plasma concentration curve (AUClast) in the normal rats and the rats treated with esomeprazole were compared to evaluate the absorption of the drugs in the actual animals.
(§2) In order to compare the pharmacokinetic parameters, 8-week old male rats (SD rats) with a body weight of about 250 g were used as test animals.

[2] = Pharmacokinetic comparison test in rats treated with esomeprazole; format: in vivo, rats (SD rats)
Text: as §1, §2
A comparison of the pharmacokinetic parameters (i.e., the maximum plasma concentration and the area under the plasma concentration curve) calculated therefrom are shown in Table 7 and FIGS. 12 and 13.

[3] = Pharmacokinetic comparison test in beagle dogs; format: in vivo
Text: A comparison of the pharmacokinetic parameters (i.e., the maximum plasma concentration and the area under the plasma concentration curve) calculated therefrom are shown in Table 8 and FIG. 14.

[4] = accelerated conditions; for Content / Purity: HPLC; for Content Change / Purity Change / Water content Change: start to 6 months
Method: The five compounds were tested for stability under stress conditions and accelerated conditions.

[5] = Stability test under stress conditions (PXRD, DSC, appearance, HPLC); details: for DSC onset / Water content / Appearance (color) / Content / Purity / Content Change / Purity Change / Water content Change: stress conditions; for Content / Purity: HPLC; for Content Change / Purity Change / Water content Change: start to 4 weeks
[6] = Rats treated with esomeprazole (i.v. 5 mg/2 mL/kg for 3 days), oral 30 mg/5 ml/kg
[7] = esomeprazole-treated vs normal rats, listed as Comparative Example 1

## C=CC(=O)Nc1cc(Nc2nccc(-n3cc(CN(C)C)c(-c4ccccc4)n3)n2)c(OC)cc1N1CCOCC1 [C. Ex. 1, N-(5-(4-(4-((dimethylamino)methyl)-3-phenyl-1H-pyrazol-1-yl)pyrimidine-2-ylamino)-4-methoxy-2-morpholinophenyl)acrylamide]
[1]; normal rats
  Area under the plasma concentration curve lower than that of the mesylate salt form (Example 1): 10.4%
  Maximum plasma concentration lower than that of the mesylate salt form (Example 1): 11.0%
[2]; [6]
  Area under the plasma concentration curve (AUClast): 2636.7 ng·h/mL
  Maximum plasma concentration (Cmax): 223.0 ng/mL
[2]; [7]
  Area under the plasma concentration curve reduced in the esomeprazole-treated rats as compared with the normal rats: 63.8%
  Maximum plasma concentration reduced in the esomeprazole-treated rats as compared with the normal rats: 69.3%
[2]; rats treated with esomeprazole
  Area under the plasma concentration curve lower than that of the mesylate salt form (Example 1): 49.4%
  Maximum plasma concentration lower than that of the mesylate salt form (Example 1): 47.8%
[3]
  Area under the plasma concentration curve lower than that of the mesylate salt form (Example 1): 50.4%
  Maximum plasma concentration lower than that of the mesylate salt form (Example 1): 40.1%

## C=CC(=O)Nc1cc(Nc2nccc(-n3cc(CN(C)C)c(-c4ccccc4)n3)n2)c(OC)cc1N1CCOCC1.CCS(=O)(=O)O [C. Ex. 4, Esilate Salt of N-(5-(4-(4-((dimethylamino)methyl)-3-phenyl-1H-pyrazol-1-yl)pyrimidine-2-ylamino)-4-methoxy-2-morpholinophenyl)acrylamide]
[4]; 1 mo
  DSC onset: 222 °C
  Water content: 2.48%
  Content: 96.1%
  Purity: 99.1%
[4]; 3 mos
  Water content: 2.98%
  Content: 95.1%
  Purity: 99.0%
[4]; 6 mos
  DSC onset: 218 °C
  Water content: 3.17%
  Content: 91.4%
  Purity: 98.4%
[4]; Start
  Purity: 99.5%
  Appearance (color): Y
[4]
  Content Change: −5.1%
  Purity Change: −1.1%
  Water content Change: +2.02%
[5]; 2 weeks
  DSC onset: 222, ° C. and 227 °C
  Water content: 1.37%
  Content: 94.7%
  Purity: 99.0%
[5]; 4 weeks
  Appearance (color): Violet
  DSC onset: 172, ° C. and 193, ° C. and 219 °C
  Water content: 3.81%
  Content: 89.5%
  Purity: 98.9%
[5]; Start
  Content: 96.5%
  Appearance (color): Yellow
  DSC onset: 223 °C
  Water content: 1.15%
[5]
  Content Change: −7%
  Purity Change: −0.6%
  Water content Change: +2.03%

## C=CC(=O)Nc1cc(Nc2nccc(-n3cc(CN(C)C)c(-c4ccccc4)n3)n2)c(OC)cc1N1CCOCC1 [Ex. 1, mesylate salt of N-(5-(4-(4-((dimethylamino)methyl)-3-phenyl-1H-pyrazol-1-yl)pyrimidine-2-ylamino)-4-methoxy-2-morpholinophenyl)acrylamide]
[1]; male, SD, rat, plasma, 30 mg/kg, Normal rats, oral 30 mg/5 ml/kg in 0.5% methylcellulose, read-out: Area under the plasma concentration curve (AUClast)
  AUC(0-t): 8140 ng·h/mL
[1]; male, SD, rat, plasma, 30 mg/kg, Normal rats, oral 30 mg/5 ml/kg in 0.5% methylcellulose, read-out: Maximum plasma concentration (Cmax)
  Cmax: 816 ng/mL
[2]; male, SD, rat, plasma, po, 30 mg/kg, Rats treated with esomeprazole (i.v. 5 mg/2 mL/kg for 3 days), oral 30 mg/5 ml/kg, read-out: Area under the plasma concentration curve (AUClast)
  AUC(0-t): 5210 ng·h/mL
[2]; male, SD, rat, plasma, po, 30 mg/kg, Rats treated with esomeprazole (i.v. 5 mg/2 mL/kg for 3 days), oral 30 mg/5 ml/kg, read-out: Maximum plasma concentration (Cmax)
  Cmax: 428 ng/mL
[3]; male, dog, plasma, 5 mg/kg, oral 5 mg/2 mL/kg in 0.5% methylcellulose, read-out: Area under the plasma concentration curve (AUClast)
  AUC(0-t): 812 ng·h/mL
[3]; male, dog, plasma, 5 mg/kg, oral 5 mg/2 mL/kg in 0.5% methylcellulose, read-out: Maximum plasma concentration (Cmax)
  Cmax: 135 ng/mL
[4]; 1 mo
  DSC onset: 214 °C
  Water content: 2.73%
  Content: 98.9%
  Purity: 99.3%
[4]; 3 mos
  DSC onset: 214 °C
  Water content: 3.19%
  Content: 98.9%
  Purity: 99.3%
[4]; 6 mos
  DSC onset: 214 °C
  Water content: 3.01%
  Content: 99.1%
  Purity: 99.3%
[4]; Start
  Content: 98.8%
  Purity: 99.2%
  DSC onset: 214 °C
  Water content: 2.48%
[4]
  Content Change: +0.3%
  Purity Change: +0.1%
  Water content Change: +0.53%
[5]; stress and accelerated conditions together, purity, water content, PXRD pattern, appearance
  Stability (overall conclusion of the stability test): excellent in stability
[5]; 2 weeks
  Appearance (color): White
  DSC onset: 214 °C
  Water content: 2.71%
  Content: 97.7%
  Purity: 99.3%
[5]; 4 weeks
  Appearance (color): White
  DSC onset: 214 °C
  Water content: 2.70%
  Content: 98.9%
  Purity: 99.3%
[5]; Start
  Content: 98.8%
  Purity: 99.2%
  Appearance (color): White
  DSC onset: 214 °C
  Water content: 2.48%
[5]
  Content Change: +0.1%
  Purity Change: +0.1%
  Water content Change: +0.22%

## C=CC(=O)Nc1cc(Nc2nccc(-n3cc(CN(C)C)c(-c4ccccc4)n3)n2)c(OC)cc1N1CCOCC1.O=C(O)CC(O)(CC(=O)O)C(=O)O [C. Ex. 3, Citrate Salt of N-(5-(4-(4-((dimethylamino)methyl)-3-phenyl-1H-pyrazol-1-yl)pyrimidine-2-ylamino)-4-methoxy-2-morpholinophenyl)acrylamide]
[4]; 1 mo
  Water content: 0.83%
  Content: 100.5%
  Purity: 98.9%
[4]; 3 mos
  DSC onset: 180 °C
  Water content: 3.05%
  Content: 101.0%
  Purity: 98.9%
[4]; 6 mos
  DSC onset: 183 °C
  Water content: 3.50%
  Content: 98.7%
  Purity: 97.7%
[4]; Start
  Content: 100.0%
  Purity: 99.2%
  Water content: 0.65%
[4]
  Content Change: −1.3%
  Purity Change: −1.5%
  Water content Change: +2.85%
[5]; 2 weeks
  DSC onset: 182 °C
  Water content: 0.62%
  Content: 98.9%
  Purity: 98.8%
[5]; 4 weeks
  DSC onset: 181 °C
  Water content: 1.47%
  Content: 98.6%
  Purity: 98.7%
[5]; Start
  Content: 100.0%
  Purity: 99.2%
  DSC onset: 182 °C
  Water content: 0.65%
[5]
  Content Change: −1.4%
  Purity Change: −0.5%
  Water content Change: +0.82%

## C=CC(=O)Nc1cc(Nc2nccc(-n3cc(CN(C)C)c(-c4ccccc4)n3)n2)c(OC)cc1N1CCOCC1.Cl [C. Ex. 2, Hydrochloride Salt of N-(5-(4-(4-((dimethylamino)methyl)-3-phenyl-1H-pyrazol-1-yl)pyrimidine-2-ylamino)-4-methoxy-2-morpholinophenyl)acrylamide]
[4]; 1 mo
  Appearance (color): Y
  DSC onset: 272 °C
  Water content: 0.98%
  Content: 97.0%
  Purity: 99.0%
[4]; 3 mos
  Appearance (color): Y
  DSC onset: 271 °C
  Water content: 1.47%
  Content: 98.3%
  Purity: 98.9%
[4]; 6 mos
  DSC onset: 271 °C
  Water content: 1.28%
  Content: 97.6%
  Purity: 98.8%
[4]; Start
  Purity: 99.0%
  Appearance (color): Y
  Water content: 0.86%
[4]
  Content Change: +0.2%
  Purity Change: −0.2%
  Water content Change: +0.42%
[5]; 2 weeks
  DSC onset: 269 °C
  Water content: 1.23%
  Content: 96.2%
  Purity: 99.1%
[5]; 4 weeks
  DSC onset: 269 °C
  Water content: 1.44%
  Content: 95.2%
  Purity: 99.1%
[5]; Start
  Content: 97.4%
  Purity: 99.0%
  Appearance (color): Yellow
  DSC onset: 267 °C
  Water content: 0.86%
[5]
  Content Change: −2.2%
  Purity Change: +0.1%
  Water content Change: +0.58%
